Assay [1] deals with recombinant RORγ Ligand Binding Domain (LBD) protein (Homo sapiens (Human), UniProt P51449). Briefly: Radio-Ligand RORγ Binding Assay (Assay 1). As to conditions: competition with 25-hydroxy [26,27-3H]-cholesterol, SPA; Table 9; read-out: RORγ Binding Ki Range*. Put shortly: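 Scintillation proximity competition binding of 8.6 nM stock 25-hydroxy[26,27-3H]cholesterol to 24 nM stock 6×His-GST-tagged human RORγ LBD, in 50 mM HEPES pH 7.4 with NaCl, MgCl2, glycerol, CHAPS, β-octylglucopyranoside and DTT, room temperature. Inhibition referenced to DMSO and 10 μM T0901317; IC50 by four-parameter fit, converted to Ki using radioligand concentration and KD.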
recombinant RORγ Ligand Binding Domain (LBD) protein, sequence (P51449 269-508): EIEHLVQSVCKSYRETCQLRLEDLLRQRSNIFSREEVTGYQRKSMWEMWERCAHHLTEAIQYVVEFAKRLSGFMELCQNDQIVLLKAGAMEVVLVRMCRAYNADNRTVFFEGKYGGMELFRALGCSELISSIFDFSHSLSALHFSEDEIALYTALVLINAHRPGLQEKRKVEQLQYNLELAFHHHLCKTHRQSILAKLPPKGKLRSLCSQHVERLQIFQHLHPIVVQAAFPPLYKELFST

Assay [2] addresses full-length RORγt in Jurkat cells (Homo sapiens (Human), UniProt P51449). The assay is described as follows: RORγt 5xRORE Assay in Jurkat Cells (Assay 2). As to conditions: Nanoluc luciferase reporter, 16-18 hrs, Table 9, read-out: RORγt5X IC50 Range*. The class given is cell-based. In outline:
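Jurkat cells co-transfected with full-length RORγt expression plasmid and a 5×RORE-driven secreted Nanoluc reporter, then plated at 80,000 cells/well in phenol-red-free RPMI with 10% delipidated FBS. Compounds added at 0.1% DMSO for 16–18 h at 37 °C; supernatant luciferase read for inverse agonism.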

Where only a bound is given, the exact number is not on record here.

full-length RORγt in Jurkat cells, sequence (P51449 other isoform, or with tags, fused parts or gaps): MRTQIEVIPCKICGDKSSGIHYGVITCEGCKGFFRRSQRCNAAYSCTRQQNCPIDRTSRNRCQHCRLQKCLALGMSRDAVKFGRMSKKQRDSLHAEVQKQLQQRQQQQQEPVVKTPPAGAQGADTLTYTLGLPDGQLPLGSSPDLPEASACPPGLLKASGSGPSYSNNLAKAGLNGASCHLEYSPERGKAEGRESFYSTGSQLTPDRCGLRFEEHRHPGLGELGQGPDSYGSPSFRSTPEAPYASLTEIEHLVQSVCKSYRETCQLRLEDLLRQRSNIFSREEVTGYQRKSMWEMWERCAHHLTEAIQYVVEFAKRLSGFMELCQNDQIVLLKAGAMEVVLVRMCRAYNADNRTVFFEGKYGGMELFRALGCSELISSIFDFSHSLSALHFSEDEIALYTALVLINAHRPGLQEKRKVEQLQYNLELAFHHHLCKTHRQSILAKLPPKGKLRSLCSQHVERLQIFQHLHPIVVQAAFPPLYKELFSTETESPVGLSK

Regarding `CCS(=O)(=O)c1ccc(CC(=O)Nc2nc3c(s2)CN(C[C@H]2CC[C@@H](C(F)(F)F)N(C)C2)[C@H]3C(C)C)cc1` (relative stereo), the Ki (commonly a measure of affinity in units of concentration, obtained from inhibition or displacement) in assay [1] is less than 100 nM. For the same compound, in assay [2], the IC50 (usually the concentration needed to halve the response being measured) is more than 1000 nM.
Regarding `CCS(=O)(=O)c1ccc(CC(=O)Nc2nc3c(s2)CN(C[C@H]2CC[C@](C)(C#N)CC2)[C@H]3C(C)C)nc1` (single isomer, unassigned), the Ki in assay [1] was less than 100 nM. Also, in assay [2], the IC50 was more than 1000 nM.
Taken in the same sequence, the figures for `CCS(=O)(=O)c1ccc(CC(=O)Nc2nc3c(s2)CN(C[C@H]2CC[C@@](C)(C#N)CC2)[C@H]3C(C)C)nc1` (single isomer, unassigned) were less than 100 nM and 100 to 1000 nM.
Taken in the same sequence, the figures for `CCS(=O)(=O)c1ccc(CC(=O)Nc2nc3c(s2)CN(C[C@@H]2CC[C@H](C(F)(F)F)N(C4CC4)C2)[C@H]3C(C)C)cc1` (single isomer, unassigned) were less than 100 nM and more than 1000 nM.
Taken in the same sequence, the figures for `CCS(=O)(=O)c1ccc(CC(=O)Nc2nc3c(s2)CN(C[C@H]2CC[C@@H](C(F)(F)F)N(C4CC4)C2)[C@H]3C(C)C)cc1` (single isomer, unassigned) were less than 100 nM and more than 1000 nM.
Take `CCS(=O)(=O)c1ccc(CC(=O)Nc2nc3c(s2)CN(C[C@H]2CC[C@H](C(F)(F)F)N(C4CC4)C2)[C@H]3C(C)C)cc1` (single isomer, unassigned): the Ki in assay [1] was less than 100 nM. Besides, the IC50 in assay [2] is more than 1000 nM.
Taken in the same sequence, the figures for `CCS(=O)(=O)c1ccc(CC(=O)Nc2nc3c(s2)CN(C[C@@H]2CC[C@@H](C(F)(F)F)N(C4CC4)C2)[C@H]3C(C)C)cc1` (single isomer, unassigned) were less than 100 nM and more than 1000 nM.
Turning to `CCS(=O)(=O)c1ccc(CC(=O)Nc2nc3c(s2)CN(C[C@H]2CC[C@](C)(OC)CC2)[C@H]3C(C)C)nc1` (single isomer, unassigned), in assay [1], the Ki is less than 100 nM. Besides, the IC50 in assay [2] was less than 100 nM.
Turning to `CCS(=O)(=O)c1ccc(CC(=O)Nc2nc3c(s2)CN(C[C@H]2CC[C@@](O)(C(F)(F)F)CC2)[C@H]3C(C)C)cc1` (single isomer, unassigned), in assay [1], the inhibitory constant (Ki) is less than 100 nM. Moreover, in assay [2], the IC50 is less than 100 nM.
As for `CCS(=O)(=O)c1ccc(CC(=O)Nc2nc3c(s2)CN([C@@H](C)c2c(F)cc(Cl)cc2F)[C@H]3C(C)C)cc1` (single isomer, unassigned), the Ki in assay [1] was less than 100 nM. Also, the half-inhibitory concentration (IC50) in assay [2] is less than 100 nM.
Consider `CCS(=O)(=O)c1ccc(CC(=O)Nc2nc3c(s2)CN(C[C@H]2CC[C@](O)(C(F)(F)F)CC2)[C@H]3C(C)C)cc1` (single isomer, unassigned), for which, in assay [1], the Ki is less than 100 nM. Also, the IC50 in assay [2] was less than 100 nM.
`CCS(=O)(=O)c1ccc(CC(=O)Nc2nc3c(s2)CN(C[C@@H]2CCCOC2)[C@H]3C(C)C)cc1` (single isomer, unassigned): the inhibition constant (Ki) in assay [1] is less than 100 nM. In addition, the IC50 in assay [2] is more than 1000 nM.
For `CCS(=O)(=O)c1ccc(CC(=O)Nc2nc3c(s2)CN(C[C@H]2CCCOC2)[C@H]3C(C)C)cc1` (single isomer, unassigned), the inhibition constant Ki in assay [1] was less than 100 nM. Further, the IC50 in assay [2] is more than 1000 nM.
Take `CCS(=O)(=O)c1ccc(CC(=O)Nc2nc3c(s2)CN(C[C@H]2CC[C@H](C(F)(F)F)CC2)[C@H]3C(C)C)nc1` (single isomer, unassigned): in assay [1], the Ki is less than 100 nM. Besides, the IC50 in assay [2] was less than 100 nM.
With `CCS(=O)(=O)c1ccc(CC(=O)Nc2nc3c(s2)CN(C[C@H]2CC[C@@H](C(F)(F)F)N(C)C2)C3C(C)C)cc1` (single isomer, unassigned), in assay [1], the Ki is less than 100 nM. Moreover, the IC50 in assay [2] was more than 1000 nM.
As to `CCS(=O)(=O)c1ccc(CC(=O)Nc2nc3c(s2)CN(C[C@H]2CC[C@@H](C(=O)OC)CC2)[C@H]3C(C)C)cc1` (single isomer, unassigned), in assay [1], the inhibition constant (Ki) is less than 100 nM. Moreover, the IC50 in assay [2] was more than 1000 nM.
For `CC(C)[C@H]1c2nc(NC(=O)Cc3ccc(S(C)(=O)=O)cc3)sc2CN1[C@H](C)c1ccc(C(F)(F)F)nc1` (single isomer, unassigned), in assay [1], the inhibition constant (Ki) was less than 100 nM. For the same compound, the concentration for half-maximal inhibition (IC50) in assay [2] is less than 100 nM.

The values are drawn from patent publication US9868748B2, “Thiazolopyrrolidine inhibitors of ROR- γ” (Vitae Pharmaceuticals, Inc., priority 2013, dated 2018).
